pEC50: −log10 of the molar value. Where two headings read alike, the source gives them in different places.
Key:
hGIPR = target: T1, hGIPR (Homo sapiens, UniProt P48546); assay: hGIPR CreLuc assay in 0.5% and 100% plasma (CHO CRE-luciferase reporter cells); assay type: cell-based; details: 0.5% human plasma, read-out: hGIPR 0.5% hP
T1 construct: expressed in transfected cells; host or cells: CHO CRE-luciferase reporter cells
T1 sequence (P48546 22-466): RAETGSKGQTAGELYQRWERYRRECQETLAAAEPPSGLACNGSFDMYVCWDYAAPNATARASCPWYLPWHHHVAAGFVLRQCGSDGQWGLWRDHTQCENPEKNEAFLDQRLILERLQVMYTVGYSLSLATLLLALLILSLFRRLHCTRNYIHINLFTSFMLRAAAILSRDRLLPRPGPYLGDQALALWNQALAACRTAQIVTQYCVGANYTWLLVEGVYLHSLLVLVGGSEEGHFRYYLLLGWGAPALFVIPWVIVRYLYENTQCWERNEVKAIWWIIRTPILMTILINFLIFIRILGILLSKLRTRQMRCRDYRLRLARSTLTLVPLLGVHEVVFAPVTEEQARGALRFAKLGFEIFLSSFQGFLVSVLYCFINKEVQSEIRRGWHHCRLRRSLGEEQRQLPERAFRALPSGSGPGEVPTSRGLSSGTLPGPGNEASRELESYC

hGLP1R = target: T2, hGLP1R (Homo sapiens, UniProt P43220); assay: hGLP1R CreLuc assay in 0.5% and 100% plasma (HEK-293 CRE-luciferase reporter cells); assay type: cell-based; details: 0.5% human plasma, HEK-293 reporter cells; for pEC50: read-out: hGLP1R 0.5% hP
T2 construct: expressed in transfected cells; host or cells: HEK-293 CRE-luciferase reporter cells
T2 sequence (P43220 24-463): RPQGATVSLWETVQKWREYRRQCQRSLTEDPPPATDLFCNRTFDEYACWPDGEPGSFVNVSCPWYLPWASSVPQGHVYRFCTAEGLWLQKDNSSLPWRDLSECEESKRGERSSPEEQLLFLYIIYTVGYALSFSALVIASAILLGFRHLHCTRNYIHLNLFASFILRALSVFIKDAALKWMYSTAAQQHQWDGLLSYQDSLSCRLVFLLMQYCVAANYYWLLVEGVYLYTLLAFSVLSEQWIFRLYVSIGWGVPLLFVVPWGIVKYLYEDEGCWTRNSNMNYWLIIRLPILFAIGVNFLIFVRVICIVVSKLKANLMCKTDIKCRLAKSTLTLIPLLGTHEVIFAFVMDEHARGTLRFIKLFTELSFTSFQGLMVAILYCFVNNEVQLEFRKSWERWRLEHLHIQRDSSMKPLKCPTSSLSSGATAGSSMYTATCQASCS
Source text: CHO and HEK-293 recombinant cell lines express a luciferase reporter gene under control of the CAMP responsive element (CRE). As a second recombinant protein the GLP-1 and NPY2 receptors were expressed in the reporter gene HEK cells, and the GIP receptor was expressed in the reporter gene CHO cells, respectively. Stimulation of these recombinant cells with an agonist leads to an increase of intracellular CAMP levels. In the presence of CAMP, the transcription factor CRE binding protein (CREB) binds to the CRE and to the CREB binding protein (CBP), which leads to transcription of the luciferase reporter gene. Peptides upon serial-dilution in 100% DMSO were transferred into 384-well assay plates with 5 μl pre-dispensed assay buffer (1×HBSS, 20 mM HEPES, pH7.4 supplemented with 0.5% human plasma) using acoustic dispensing on a Labcyte ECHO. Cryo-preserved transgenic reporter gene cells were thawed in assay buffer. 20 μl (10.000 cells/well) were added to the plate with the peptides and incubated for 4 hours at 37° C. in a humidified incubator. Following incubation, assay plates are equilibrated to room temperature, followed by addition of 25 μl of Bright-Glo™ Luciferase reagent, incubation at room temperature for 10 minutes and analysis of luminescence (Envision Reader). […] EC50 values were calculated by non-linear regression using sigmoid concentration-response with variable slope.
The same assays were run in the presence of 100% plasma with no additional buffer constituents.

[1] = Solubility in 0.1 M phosphate buffer at pH 7; assay type: physicochemical; details: 0.1 M phosphate buffer at pH 7, 10 mg/mL final peptide concentration, shaking 2 hours at room temperature, peptides as TFA-salts; measured sample pH 6.5-7.0

SMILES	pEC50 (hGIPR)	pEC50 (hGLP1R)	solubility at 2 h [1] [µg/mL]	EC50 (hGLP1R; hGLP1R 0.5% hP (nM)) [nM]
CC[C@H](C)[C@H](NC(=O)[C@H](CC(C)C)NC(=O)[C@H](Cc1c[nH]cn1)NC(=O)[C@H](CCCNC(=N)N)NC(=O)[C@@H](NC(=O)[C@H](Cc1ccccc1)NC(=O)[C@H](C)NC(=O)C(C)(C)NC(=O)[C@H](CCC(N)=O)NC(=O)[C@H](C)NC(=O)[C@H](CCC(N)=O)NC(=O)[C@H](CCCCN)NC(=O)[C@H](CCC(=O)O)NC(=O)[C@H](CC(C)C)NC(=O)C(C)(C)NC(=O)[C@@H](NC(=O)[C@H](CO)NC(=O)[C@H](Cc1ccc(O)cc1)NC(=O)[C@H](CC(=O)O)NC(=O)[C@H](CO)NC(=O)[C@@H](NC(=O)[C@H](Cc1ccccc1)NC(=O)[C@@H](NC(=O)CNC(=O)[C@H](CCC(=O)O)NC(=O)C(C)(C)NC(=O)[C@@H](N)Cc1ccc(O)cc1)[C@@H](C)O)[C@@H](C)O)[C@@H](C)CC)C(C)C)C(=O)N[C@@H](CC(N)=O)C(=O)N[C@@H](CCCCNC(=O)CC[C@H](NC(=O)CC[C@H](NC(=O)CC[C@H](NC(=O)CC[C@H](NC(=O)CC[C@H](NC(=O)CC[C@H](NC(=O)CCCCCCCCCCCCCCCCC(=O)O)C(=O)O)C(=O)O)C(=O)O)C(=O)O)C(=O)O)C(=O)O)C(=O)NC(C)(C)C(=O)N[C@H](C(=O)N[C@@H](CCCNC(=N)N)C(=O)N(C)[C@@H](CCC(N)=O)C(=O)N[C@@H](CCCNC(=N)N)C(=O)N[C@@H](Cc1ccc(O)cc1)C(N)=O)[C@@H](C)O [Compound 2, Y-Aib-E-G-T-F-T-S-D-Y-S-I-Aib-L-E-K-Q-A-Q-Aib-A-F-V-R-H-L-I-N-K(1,3)-Aib-T-R-NMeQ-R-Y-NH2.C18DA-gGlu-gGlu-gGlu-gGlu-gGlu-gGlu(1,2)]	9.40	9.10	5000	–
CC[C@H](C)[C@H](NC(=O)[C@H](CC(C)C)NC(=O)[C@H](Cc1c[nH]cn1)NC(=O)[C@H](CCCNC(=N)N)NC(=O)[C@@H](NC(=O)[C@H](Cc1ccccc1)NC(=O)[C@H](C)NC(=O)C(C)(C)NC(=O)[C@H](CCC(N)=O)NC(=O)[C@H](C)NC(=O)[C@H](CCC(N)=O)NC(=O)[C@H](CCCCN)NC(=O)[C@H](CCC(=O)O)NC(=O)[C@H](CC(C)C)NC(=O)C(C)(C)NC(=O)[C@@H](NC(=O)[C@H](CO)NC(=O)[C@H](Cc1ccc(O)cc1)NC(=O)[C@H](CC(=O)O)NC(=O)[C@H](CO)NC(=O)[C@@H](NC(=O)[C@H](Cc1ccccc1)NC(=O)[C@@H](NC(=O)CNC(=O)[C@H](CCC(=O)O)NC(=O)C(C)(C)NC(=O)[C@@H](N)Cc1ccc(O)cc1)[C@@H](C)O)[C@@H](C)O)[C@@H](C)CC)C(C)C)C(=O)N[C@@H](CC(N)=O)C(=O)N[C@@H](CCCCNC(=O)COCCOCCNC(=O)CC[C@H](NC(=O)CC[C@H](NC(=O)CC[C@H](NC(=O)CC[C@H](NC(=O)CC[C@H](NC(=O)CCCCCCCCCCCCCCCCC(=O)O)C(=O)O)C(=O)O)C(=O)O)C(=O)O)C(=O)O)C(=O)N[C@@H](CC(C)C)C(=O)N[C@H](C(=O)N[C@@H](CCCNC(=N)N)C(=O)N[C@@H](CCC(N)=O)C(=O)N[C@@H](CCCNC(=N)N)C(=O)N[C@@H](Cc1ccc(O)cc1)C(N)=O)[C@@H](C)O [Compound 7, Y-Aib-E-G-T-F-T-S-D-Y-S-I-Aib-L-E-K-Q-A-Q-Aib-A-F-V-R-H-L-I-N-K(1,3)-L-T-R-Q-R-Y-NH2.C18DA-gGlu-gGlu-gGlu-gGlu-gGlu-OEG(1,2)]	9.40	9.15	4500	–
CC[C@H](C)[C@H](NC(=O)[C@H](CC(C)C)NC(=O)[C@H](Cc1c[nH]cn1)NC(=O)[C@H](CCCNC(=N)N)NC(=O)[C@@H](NC(=O)[C@H](Cc1ccccc1)NC(=O)[C@H](C)NC(=O)C(C)(C)NC(=O)[C@H](CCC(N)=O)NC(=O)[C@H](C)NC(=O)[C@H](CCC(N)=O)NC(=O)[C@H](CCCCN)NC(=O)[C@H](CCC(=O)O)NC(=O)[C@H](CC(C)C)NC(=O)C(C)(C)NC(=O)[C@@H](NC(=O)[C@H](CO)NC(=O)[C@H](Cc1ccc(O)cc1)NC(=O)[C@H](CC(=O)O)NC(=O)[C@H](CO)NC(=O)[C@@H](NC(=O)[C@H](Cc1ccccc1)NC(=O)[C@@H](NC(=O)CNC(=O)[C@H](CCC(=O)O)NC(=O)C(C)(C)NC(=O)[C@@H](N)Cc1ccc(O)cc1)[C@@H](C)O)[C@@H](C)O)[C@@H](C)CC)C(C)C)C(=O)N[C@@H](CC(N)=O)C(=O)N[C@@H](CCCCNC(=O)CC[C@H](NC(=O)CC[C@H](NC(=O)CC[C@H](NC(=O)CC[C@H](NC(=O)CC[C@H](NC(=O)CC[C@H](NC(=O)CCCCCCCCCCCCCCCCC(=O)O)C(=O)O)C(=O)O)C(=O)O)C(=O)O)C(=O)O)C(=O)O)C(=O)N[C@@H](CC(C)C)C(=O)N[C@H](C(=O)N[C@@H](CCCNC(=N)N)C(=O)N[C@@H](CCC(N)=O)C(=O)N[C@@H](CCCNC(=N)N)C(=O)N[C@@H](Cc1ccc(O)cc1)C(N)=O)[C@@H](C)O [Compound 12, Y-Aib-E-G-T-F-T-S-D-Y-S-I-Aib-L-E-K-Q-A-Q-Aib-A-F-V-R-H-L-I-N-K(1,3)-L-T-R-Q-R-Y-NH2.C18DA-gGlu-gGlu-gGlu-gGlu-gGlu-gGlu(1,2)]	9.10	8.74	5000	–
CC[C@H](C)[C@H](NC(=O)[C@H](CC(C)C)NC(=O)[C@H](Cc1c[nH]cn1)NC(=O)[C@H](CCCNC(=N)N)NC(=O)[C@@H](NC(=O)[C@H](Cc1ccccc1)NC(=O)[C@H](C)NC(=O)C(C)(C)NC(=O)[C@H](CCC(N)=O)NC(=O)[C@H](C)NC(=O)[C@H](CCC(N)=O)NC(=O)[C@H](CCCCN)NC(=O)[C@H](CCC(=O)O)NC(=O)[C@H](CC(C)C)NC(=O)C(C)(C)NC(=O)[C@@H](NC(=O)[C@H](CO)NC(=O)[C@H](Cc1ccc(O)cc1)NC(=O)[C@H](CC(=O)O)NC(=O)[C@H](CO)NC(=O)[C@@H](NC(=O)[C@H](Cc1ccccc1)NC(=O)[C@H](CCC(=O)O)NC(=O)CNC(=O)[C@H](CCC(=O)O)NC(=O)C(C)(C)NC(=O)[C@@H](N)Cc1ccc(O)cc1)[C@@H](C)O)[C@@H](C)CC)C(C)C)C(=O)N[C@@H](CC(N)=O)C(=O)N[C@@H](CCCCNC(=O)[C@@H](N)CCCCNC(=O)CC[C@H](NC(=O)CC[C@H](NC(=O)CC[C@H](NC(=O)CC[C@H](NC(=O)CC[C@H](NC(=O)CC[C@H](NC(=O)CCCCCCCCCCCCCCCCC(=O)O)C(=O)O)C(=O)O)C(=O)O)C(=O)O)C(=O)O)C(=O)O)C(=O)NC(C)(C)C(=O)N[C@H](C(=O)N[C@@H](CCCNC(=N)N)C(=O)N[C@@H](CCC(N)=O)C(=O)N[C@@H](CCCNC(=N)N)C(=O)N[C@@H](Cc1ccc(O)cc1)C(N)=O)[C@@H](C)O [Compound 54, Y-Aib-E-G-E-F-T-S-D-Y-S-I-Aib-L-E-K-Q-A-Q-Aib-A-F-V-R-H-L-I-N-K(1,3)-Aib-T-R-Q-R-Y-NH2.C18DA-gGlu-gGlu-gGlu-gGlu-gGlu-gGlu-eLys(1,2)]	–	8.47	9600	–
CC[C@H](C)[C@H](NC(=O)[C@H](CO)NC(=O)[C@H](CC(C)C)NC(=O)[C@H](CC(=O)O)NC(=O)[C@H](CO)NC(=O)[C@@H](NC(=O)[C@H](Cc1ccccc1)NC(=O)[C@@H](NC(=O)CNC(=O)[C@H](CCC(=O)O)NC(=O)C(C)(C)NC(=O)[C@@H](N)Cc1ccc(O)cc1)[C@@H](C)O)[C@@H](C)O)C(=O)NC(C)(C)C(=O)N[C@@H](CC(C)C)C(=O)N[C@@H](CCC(=O)O)C(=O)N[C@@H](CCCCN)C(=O)N[C@@H](CCC(N)=O)C(=O)N[C@@H](C)C(=O)N[C@@H](CCC(N)=O)C(=O)NC(C)(C)C(=O)N[C@@H](C)C(=O)N[C@@H](Cc1ccccc1)C(=O)N[C@H](C(=O)N[C@@H](CCCNC(=N)N)C(=O)N[C@@H](Cc1c[nH]cn1)C(=O)N[C@@H](CC(C)C)C(=O)N[C@@H](CC(C)C)C(=O)N[C@@H](CC(N)=O)C(=O)N[C@@H](CCCCNC(=O)[C@@H](N)CCCCNC(=O)CC[C@H](NC(=O)CC[C@H](NC(=O)CC[C@H](NC(=O)CC[C@H](NC(=O)CC[C@H](NC(=O)CC[C@H](NC(=O)CCCCCCCCCCCCCCCCCCC(=O)O)C(=O)O)C(=O)O)C(=O)O)C(=O)O)C(=O)O)C(=O)O)C(=O)NC(C)(C)C(=O)N[C@H](C(=O)N[C@@H](CCCNC(=N)N)C(=O)N[C@@H](CCC(N)=O)C(=O)N[C@@H](CCCNC(=N)N)C(=O)N[C@@H](Cc1ccc(O)cc1)C(N)=O)[C@@H](C)O)C(C)C [Compound 115, Y-Aib-E-G-T-F-T-S-D-L-S-I-Aib-L-E-K-Q-A-Q-Aib-A-F-V-R-H-L-L-N-K(1,3)-Aib-T-R-Q-R-Y-NH2.C20DA-gGlu-gGlu-gGlu-gGlu-gGlu-gGlu-eLys(1,2)]	–	–	8200	7

From US20250382344A1, “Soluble GLP1/GIP/NPY2 Receptor Triple Agonists” (Boehringer Ingelheim International GmH, priority 2024, published 2025)
